The source of these data is patent US10428043B2, “Green oxidation catalytic system” (TRUSTEES OF BOSTON UNIVERSITY, priority 2014, dated 2019).

The nature of data set [1]: Room temperature O2 reactivity of ferrous complexes followed by UV/vis. Particulars: αKG adduct. As for the experimental part: The solution was transferred to an anaerobic UV/vis cell and sealed. An initial spectrum was obtained of the ferrous complex, and then the solution was exposed to the air. Spectra were recorded every minute for the first two minutes and then every 5-30 minutes after that for seven hours. The absorbance was monitored at 350 nm to follow formation of the oxidized complex.
This solution was then transferred to an anaerobic UV/vis cell and sealed. An initial spectrum was obtained of the ferrous complex, and then the solution was exposed to the air. Spectra were collected every minute for the first 30 minutes and then every 5-20 minutes after that for 2 hours. The absorbance was monitored at 315 nm to follow formation of the oxidized complex.

Data set [2] in a line: Catalytic oxidation of methanol to formaldehyde with α-KG and O2 (Nash assay). The settings on record: N2O1py system, five equivalents [Na][αKG], O2, 60 min.
A short description of data set [3]: Cyclic voltammetry, redox potentials. In kind it is physicochemical. The source says:
All reagents and solvents used were purchased from commercial sources and used as received unless otherwise noted. Prior to use, methanol (Pharmco-Aaper) was distilled over magnesium metal, dimethyl sulfoxide (Fisher Scientific) was distilled over calcium hydride, triethylamine was distilled over sodium metal and unstabilized dichloromethane (Fisher Scientific) was distilled over calcium hydride. Ferrocene was purified by sublimation for use as a reference for electrochemical analyses. All manipulations involving ferrous complexes were carried out in an inert atmosphere glovebox (M. Braun, Stratham, N.H.) with distilled and thoroughly degassed solvents. UV/Vis spectra were collected using a Hewlett Packard Spectrometer (8453). IR spectra were collected using a Thermo Nicolet AVATAR 330-FT-IR. Cyclic voltammetry experiments were performed using a Princeton Applied Research model 273 potentiostat with a glassy carbon working electrode, a silver wire reference electrode and a platinum wire counter electrode. Electron Paramagnetic Resonance (EPR) spectra were collected on a Bruker ESP-300E spectrometer operating at 9.460 GHz. NMR spectra were recorded at 25° C. using a Varian spectrometer operating at 400 MHz with all chemical shifts referenced to SiMe4. Iron concentrations were determined using a Varian AA240Z Atomic Absorption Spectrometer.
Cyclic voltammetry was performed inside an inert atmosphere (N2) box, with degassed DMSO as the solvent and tetra-N-butylammonium hexafluorophosphate as the supporting electrolyte (0.2M). The ferrocenium/ferrocene couple was used as an internal reference; reduction potential values were corrected by assigning the ferrocenium/ferrocene couple to 0.64 V versus NHE (Zanello, P. Inorganic Electrochemistry; The Royal Society of Chemistry: Cambridge, 2003). Chloride titration experiments were performed by collecting CV data after the addition of one and two 50 μL aliquots of 204 mM [NEt4][Cl] to 3.0 mL of 3.4 mM [Fe^II(N2O1py)(Cl)2]^− (concentration determined using flame atomic absorption spectroscopy) and correcting the potential with reference to the ferrocenium/ferrocene couple.
It should be noted that these redox potentials were determined in the absence of excess halide, and further CV studies will be performed in the presence of excess halide for all derivatives of the N2O1py system.

For data set [4] the following is noted: estimated value for the functional group; cited from earlier work.
The conditions of data set [5]: cited from earlier work; for second order rate constant k of NO binding: 20° C., stopped-flow with laser flash photolysis.
Data set [6] is described as follows: Low-temperature stopped-flow kinetics of adduct complexes with dioxygen. The settings on record: complex 0.94-1.1 mM, O2 5 mM, methanol, −85° C. As for the experimental part: (§1) Stopped-flow Spectroscopy and Data analysis.
Kinetic studies of [Fe^II(N2O1)(α-KG)(CH3OH)]^− and [Fe^II(N2O1)(p-X-BF)(CH3OH)]^− adduct complexes with dioxygen. Low-temperature stopped flow studies of this reaction were performed.
Order dependence analysis.
The kinetic model was built by starting from simple two- and three-exponential processes.
Stoichiometry of the equations for the proposed model in FIG. 29: […]

The nature of data set [7]: Stopped-flow kinetics of NO binding at −85° C. in methanol. Particulars: NO 6.4 mM.
From the text: as §1

Turning to `CN(CC(=O)[O-])Cc1ccccn1.O=C([O-])CCC(=O)C(=O)[O-].[Fe+2]` [[Fe^II(N2O1py)(αKG)]], the “time for reaction with O2, in words” value in data set [1] is listed as “within minutes”. In addition, the “turnover number (equivalents of formaldehyde per iron center)” value in data set [2] (iron complex 1.0 μM) was found to be 33. In addition, the “turnover number (equivalents of formaldehyde per equivalent of iron)” value in data set [2] (iron complex 100 μM) was 0.7.
For the compound `C#Cc1ccnc(CN(C)CC(=O)[O-])c1.CC[NH+](CC)CC.CO.[Cl-].[Cl-].[Fe+2]` [[Fe^II(N2O1py-alkyne)], [C6H16N][Fe^II(N2O1-alkyne)(MeOH)(Cl)2]], the E1/2 in data set [3] (DMSO, glassy carbon working electrode, absence of excess halide) worked out at 270 mV.
On to `CN(CC(=O)O)Cc1ccccn1` [[H2N2O1py]^+, 2-(methyl(pyridine-1-ium-2-ylmethyl)ammonio)acetate], for which, in data set [4], the “estimated pKa, carboxylic acid” value was approximately 4.8; the “estimated pKa, pyridinium” value is recorded as approximately 5.2; the “estimated pKa, tertiary ammonium” value was approximately 10.
Consider `N#C[N-]C#N.N#C[N-]C#N.N#C[N-]C#N.N#C[N-]C#N.N#C[N-]C#N.[Cl-].[Fe+2]` [[Fe^II(dca)5Cl]^4−], for which, in data set [5], the “second order rate constant k of NO binding” value is 1.7e+07 M⁻¹ s⁻¹.
As for `O.O.O.O.O.O.[Fe+2]` [[Fe(H2O)6)]^2+], in data set [5], the “second order rate constant k of NO binding” value was 1.42e+06 M⁻¹ s⁻¹.
Turning to `CN(C)CCN(C)CC(=O)[O-].CO.Nc1ccc(C(=O)C(=O)[O-])cc1.[Fe+2]` [compound 26, [Fe^II(N2O1)(p-NH2-BF)(CH3OH)]], in data set [6], the “k′1” value amounted to 8.5 ± 1.8 s⁻¹, the “k′2” value was determined as 2700 ± 300 M⁻¹ s⁻¹, the “k′3” value is 1.0 ± 0.2 s⁻¹ and the “k′4 (k′4obs)” value was determined as 1.7 ± 0.4 s⁻¹.
Regarding `CN(C)CCN(C)CC(=O)[O-].CO.N#Cc1ccc(C(=O)C(=O)[O-])cc1.[Fe+2]` [compound 25, [Fe^II(N2O1)(p-CN-BF)(CH3OH)]], in data set [6], the “k′1” value came to 8.7 ± 1.2 s⁻¹, the “k′2” value worked out at 140 ± 12 M⁻¹ s⁻¹, the “k′3” value was 60 ± 5 s⁻¹ and the “k′4 (k′4obs)” value amounted to 0.2 ± 0.02 s⁻¹.
As for `CN(C)CCN(C)CC(=O)[O-].[Cl-].[Cl-].[Cl-].[Fe+3]` [Fe^III N2O1, [Fe^III(N2O1)(Cl)3]], in data set [3] (no added halide, in mV), the E1/2 result is on record as “+136”.
For the compound `O.O.O=C([O-])CN(CCN(CC(=O)[O-])CC(=O)O)CC(=O)[O-].[Cl-].[K+].[Ru+3]` [K[Ru^III(Hedta)Cl].2H2O], in data set [7], the “k20 (loss of a ligand before NO binding)” value was 8.2 s⁻¹ and the “k21 (second order, NO binding)” value was determined as 127 M⁻¹ s⁻¹. The “rate k of reaction with NO” value in data set [5] (room temperature, aqueous solution, depending on pH) was 38000 to 120000 M⁻¹ s⁻¹.
`CN(C)c1cccc2cccc([NH+](C)C)c12.CN(CC(=O)[O-])Cc1ccccn1.[Cl-].[Cl-].[Cl-].[Fe+3]` [Fe^III N2O1py, [PSH][Fe^III(N2O1py)(Cl)3]] had a ΔE in data set [3] (no added halide) of 128 mV. Besides, the E1/2 entry in data set [3] (no added halide, in mV) is “+189”.
